We go through 17 molecules from publication PMC4356558, “Prediction of Chemical Respiratory Sensitizers Using GARD, a Novel In Vitro Assay Based on a Genomic Biomarker Signature” (PLoS ONE, 2015).

The test system of data set [1] is GRPS genomic biomarker signature (389 transcripts) in MUTZ-3 cells. In words: GARD assay with GARD Respiratory Prediction Signature (GRPS), SVM classification of respiratory sensitizers. As for the experimental part: (§1) The human acute myelomonocytic leukemia cell line MUTZ-3[68, 69] was obtained from Leibniz-Institut DSMZ-Deutsche Sammlung von Mikroorganismen und Zellkulturen (DSMZ, Braunschweig, Germany). Maintenance of cells, chemical stimulation of MUTZ-3 and all subsequent isolation of mRNA and preparation of cDNA were performed as previously described. In short, a phenotypic control of MUTZ-3 was performed using flow cytometry prior to chemical stimulation to ensure cells were in an immature state. The following FITC-conjugated mouse monoclonal antibodies (mAbs) were used: CD1a (DakoCytomation, Glostrup, Denmark), CD34, CD86, HLA-DR, IgG1 (BD Biosciences, Franklin Lakes, NJ). The following PE-conjugated mouse monoclonal antibodies were used: CD14 (DakoCytomation), CD54, CD80, IgG1 (BD Biosciences). Cell viability was determined using Propidium Iodide (BD Biosciences) staining. Samples were run on FACSCanto II instrument. Data was acquired using FACS Diva software (BD Biosciences) and analyzed using FCS Express V4 (De Novo Software, Los Angeles, CA). Gating was performed to exclude cell debris and non-viable cells based on forward- and side-scattering properties and quadrants established using isotype-controls. During chemical exposure, cells were seeded at 200.000 cells/ml in 24-well plates and exposed to chemical compound at the GARD input concentration. Stimulated cells were harvested after 24h incubation at 37 °C, 5% CO2 and RNA was isolated with TRIzol reagent (Life Technologies, Carlsbad, CA) using standardized protocols provided by the manufacturer. In parallel, a control of the maturity state of the cells was performed by flow cytometric analysis of CD86. Preparation of cDNA and hybridization, washing and scanning of the Human Gene 1.0 ST Arrays (Affymetrix, Santa Clara, CA, USA) was performed, according to standardized protocols provided by the manufacturer (Affymetrix).
Gene expression data obtained from the Human Gene 1.0 ST Arrays were normalized using the Single-Channel array normalization (SCAN) algorithm, and potential batch effects between different set of experiments were adjusted using the ComBat empirical bayes method. Normalizations and batch adjustments were performed in R statistical software using the open software Bioconductor v2.14 [73] with the additional software packages SCAN.UPC [70] and sva. Normalized data was imported into Qlucore Omics Explorer 3.0 (Qlucore AB, Lund, Sweden) and visualized using Principal Component Analysis (PCA). Predictors were selected from a one-way ANOVA p-value filtration, using false discovery rate (FDR) to adjust for multiple hypothesis testing, comparing respiratory sensitizers and non-respiratory sensitizers. […] The Backward Elimination algorithm was modified to minimize the Kullback-Leibler error [53] rather than maximizing the Area Under the Receiver Operating Characteristic (AUC ROC), in order to enable signature optimization in cases where the AUC ROC reaches 1.0. […] The script for Backwards Elimination was programmed in R, with the additional package e1071 [78]. The method by which the predictive genomic biomarker signature was established was validated using cross-validation based on Support Vector Machines (SVM), based on a linear kernel, as described previously. In short, the training dataset was randomly divided into a new cross-validation training dataset comprising 70% of the stimulations, and a cross-validation test dataset comprising 30% of the stimulations. In addition, care was taken to maintain the same proportion between respiratory sensitizers and non-respiratory sensitizers as in the complete training dataset. A new predictive genomic biomarker signature was identified from the cross-validation training dataset using one-way ANOVA p-value filtration as described above.

The next data set has as its system MUTZ-3 cells. In words: Chemical cytotoxicity, concentration yielding 90% relative viability (Rv90), propidium iodide staining.
Description: A panel of 32 reference chemicals comprising a selection of 10 well characterized respiratory sensitizers and 22 non-respiratory sensitizers, collectively termed the training dataset, were used for cell stimulations in order to establish the predictive genomic biomarker signature. […] Additionally, a panel of 25 chemicals, including 6 respiratory sensitizers and 19 non-respiratory sensitizers, collectively termed the independent test dataset, were used for cell stimulations in order to form an independent testset for validation of the identified predictive genomic biomarker signature. The […] comprised both control chemicals, included during the training of the model, as well as chemicals previously unseen during training of the model. […] All chemicals were purchased from Sigma-Aldrich (St. Louis, MO, USA). Chemicals were dissolved and diluted into GARD input concentration in either water or DMSO prior to stimulation of cells. For chemicals dissolved in DMSO, the in-well concentration of DMSO was 0.1%. Monitoring of chemical cytotoxicity and establishment of GARD input concentration for each chemical compound was performed as previously described. […] Toxic compounds were used at a concentration yielding 90% relative viability (Rv90). The criterion that was first met determined the GARD input concentration for each compound.
as §1

[2] abbreviates: replicate stimulation 1, 24 h at GARD input concentration, independent test dataset, > 0 = respiratory sensitizer.
Where [3] appears, read: replicate stimulation 2, 24 h at GARD input concentration, independent test dataset, > 0 = respiratory sensitizer.
The mark [4] stands for this setting: replicate stimulation 3, 24 h at GARD input concentration, independent test dataset, > 0 = respiratory sensitizer.
Setting [5] is: respiratory sensitizer if any of replicate stimulations has SVM decision value > 0.

Read-outs that look alike come from different tables or passages of the source.

Consider `O=CC=O` [Glyoxal], for which the “SVM decision value 1” value in data set [1] (setting [2]) is −1.02. Also, in data set [1] (setting [3]), the “SVM decision value 2” value was −0.69. Moreover, the “SVM decision value 3” value in data set [1] (setting [4]) is reported as −0.56. The “Classification, Pos if 1 sample > 0” value in data set [1] (setting [5]) is “Non-sensitizer”. This molecule showed a Rv90 in the data set with MUTZ-3 cells of 300 µM.
Consider `CCCCCCCCCCCCOS(=O)(=O)[O-].[Na+]` [Sodium dodecyl sulphate], for which, in data set [1], the “Classification, Pos if 1 sample > 0” value is “Non-sensitizer”; the “SVM decision value 1” value is on record as −1.49; the “SVM decision value 2” value was −0.80; the “SVM decision value 3” value is listed as −1.30. In addition, the Rv90 with MUTZ-3 cells stood at 200 µM.
Take `C=CC(=O)OCCO` [2-Hydroxyethyl acrylate]: the Rv90 in the data set on MUTZ-3 cells (concentration yielding 90% relative viability, MUTZ-3, training dataset) is 100 µM.
On to `Cc1ccc(S(=O)(=O)NCl)cc1` [Chloramine T], for which, in data set [1] (setting [2]), the “SVM decision value 1” value is 0.52. The “SVM decision value 2” value in data set [1] (setting [3]) is 0.59. Further, the “Classification, Pos if 1 sample > 0” value in data set [1] (setting [5]) is on record as “Sensitizer”.
On to `Oc1ccccc1` [Phenol], for which, in data set [1], the “Classification, Pos if 1 sample > 0” value is “Non-sensitizer”. For the same molecule, in data set [1] (human), the “SVM decision value 1” value was −1.04, the “SVM decision value 2” value is listed as −0.38 and the “SVM decision value 3” value is given as −0.95.
Consider `O=C(O)c1ccccc1O` [Salicylic acid], for which the “SVM decision value 1” value in data set [1] (setting [2]) is reported as −0.73. The “SVM decision value 2” value in data set [1] (setting [3]) is on record as −1.08. Further, the “SVM decision value 3” value in data set [1] (setting [4]) is given as −1.13. Moreover, the “Classification, Pos if 1 sample > 0” value in data set [1] (setting [5]) is “Non-sensitizer”.
Turning to `O=C(O)c1ccc(O)cc1` [p-hydroxybenzoic acid], in data set [1] (setting [2]), the “SVM decision value 1” value is given as −0.81. Further, the “SVM decision value 2” value in data set [1] (setting [3]) is reported as −0.56. In addition, in data set [1] (setting [4]), the “SVM decision value 3” value was −1.09. Also, the “Classification, Pos if 1 sample > 0” value in data set [1] (setting [5]) was “Non-sensitizer”.
Turning to `CCCCCCCC(=O)O` [Octanoic acid], the “SVM decision value 1” value in data set [1] (setting [2]) is on record as −0.65. Further, the “SVM decision value 2” value in data set [1] (setting [3]) is given as −0.79. Also, the “SVM decision value 3” value in data set [1] (setting [4]) was −1.22. The “Classification, Pos if 1 sample > 0” value in data set [1] (setting [5]) is listed as “Non-sensitizer”.
Consider `CCCCO` [1-Butanol], for which, in data set [1], the “Classification, Pos if 1 sample > 0” value is recorded as “Sensitizer”; the “SVM decision value 1” value was −0.32; the “SVM decision value 2” value is listed as 0.12.
For `C=O` [Formaldehyde], in the data set on MUTZ-3 cells, the Rv90 turned out to be 80 µM.
`CCOC(=O)c1ccccc1C(=O)OCC` [Diethyl phthalate]: in data set [1] (setting [2]), the “SVM decision value 1” value is on record as −1.37. In addition, the “SVM decision value 2” value in data set [1] (setting [3]) is listed as −0.96. In addition, the “SVM decision value 3” value in data set [1] (setting [4]) was −1.22. Moreover, the “Classification, Pos if 1 sample > 0” value in data set [1] (setting [5]) was “Non-sensitizer”.
In the same order, the values of `O=Cc1ccccc1` [Benzaldehyde] are −0.79, −0.87, −0.70 and “Non-sensitizer”.
With `Oc1cccc(O)c1` [Resorcinol], the “SVM decision value 1” value in data set [1] (setting [2]) is listed as −1.01. In addition, the “SVM decision value 2” value in data set [1] (setting [3]) is reported as −0.99. In addition, the “SVM decision value 3” value in data set [1] (setting [4]) is listed as −1.40. For the same molecule, in data set [1] (setting [5]), the “Classification, Pos if 1 sample > 0” value was “Non-sensitizer”.
On to `Sc1nc2ccccc2s1` [2-mercaptobenzothiazole], for which the “SVM decision value 1” value in data set [1] (setting [2]) is −0.44. Also, the “SVM decision value 2” value in data set [1] (setting [3]) was −0.43. For the same molecule, the “SVM decision value 3” value in data set [1] (setting [4]) was −0.57.
Consider `OCC(O)CO` [Glycerol], for which the “SVM decision value 1” value in data set [1] (setting [2]) is listed as −1.05. For the same molecule, the “SVM decision value 2” value in data set [1] (setting [3]) is −1.11. Besides, in data set [1] (setting [4]), the “SVM decision value 3” value was −0.77. For the same molecule, the “Classification, Pos if 1 sample > 0” value in data set [1] (setting [5]) is on record as “Non-sensitizer”.
For `CC(O)C(=O)O` (centres unmarked) [Lactic acid], the “SVM decision value 1” value in data set [1] (setting [2]) was −1.20. Besides, the “SVM decision value 2” value in data set [1] (setting [3]) is on record as −0.81. The “SVM decision value 3” value in data set [1] (setting [4]) was −0.89.
With `Clc1ccccc1` [Chlorobenzene], in data set [1] (setting [2]), the “SVM decision value 1” value was −1.03. Besides, in data set [1] (setting [3]), the “SVM decision value 2” value was −0.76. Moreover, the “SVM decision value 3” value in data set [1] (setting [4]) is −1.15. Besides, the “SVM decision value 4” value in data set [1] (replicate stimulation 4, 24 h at GARD input concentration, independent test dataset, > 0 = respiratory sensitizer) was 0.24. In addition, the “SVM decision value 5” value in data set [1] (replicate stimulation 5, 24 h at GARD input concentration, independent test dataset, > 0 = respiratory sensitizer) is on record as 0.06. Besides, the “Classification, Pos if 1 sample > 0” value in data set [1] (setting [5]) is reported as “Sensitizer”.
